How the values were obtained:
[1] = tested on: spring oilseed rape variety ABILITY; assay: Field trial, visible phytotoxicity (Table 2); format: in vivo, Brassica napus; details: applied at BBCH 14, 200 L/ha water, g ai/ha: Foramsulfuron 25, TCM 15, Iodosulfuron 7, Mesosulfuron 60, Amidosulfuron 30, Ethoxysulfuron 60, Imazamox 40, Metosulam 30, Bispyribac 50, Nicosulfuron 60, Metsulfuron 8, Propoxycarbazone 70, Pyroxsulam 50, Tribenuron 30, Rimsulfuron 12.5, Flucarbazone 40, Thifensulfuron 7.5
Text: (§1) Seeds of spring oilseed rape homozygous for HETO133 and HETO134 were sown in a field according to typical practical agricultural methods. The registered spring oilseed rape variety ABILITY, the wild-type segregant (WTS), and plants comprising a P197S mutation on ALS I and a W574L mutation on ALS III (P197S-W574L) served as a comparison. All plants were cultivated up to BBCH stage 14 (four true leaves of the oilseed rape plants). Afterwards, the herbicides mentioned in table 2 have been applied to the oilseed rape plants by using specific spray equipment for small plot applications. The water amount used was 200 L/ha.

[2] = tested on: wild-type segregant (WTS) oilseed rape; assay: Field trial, visible phytotoxicity (Table 2); format: in vivo, Brassica napus; details: applied at BBCH 14, 200 L/ha water, g ai/ha: Foramsulfuron 25, TCM 15, Iodosulfuron 7, Mesosulfuron 60, Amidosulfuron 30, Ethoxysulfuron 60, Imazamox 40, Metosulam 30, Bispyribac 50, Nicosulfuron 60, Metsulfuron 8, Propoxycarbazone 70, Pyroxsulam 50, Tribenuron 30, Rimsulfuron 12.5, Flucarbazone 40, Thifensulfuron 7.5
Text: as §1

[3] = tested on: oilseed rape comprising a P197S mutation on ALS I and a W574L mutation on ALS III (P197S-W574L); assay: Field trial, visible phytotoxicity (Table 2); format: in vivo, Brassica napus; details: applied at BBCH 14, 200 L/ha water, g ai/ha: Foramsulfuron 25, TCM 15, Iodosulfuron 7, Mesosulfuron 60, Amidosulfuron 30, Ethoxysulfuron 60, Imazamox 40, Metosulam 30, Bispyribac 50, Nicosulfuron 60, Metsulfuron 8, Propoxycarbazone 70, Pyroxsulam 50, Tribenuron 30, Rimsulfuron 12.5, Flucarbazone 40, Thifensulfuron 7.5
Text: as §1

[4] = tested on: oilseed rape homozygous for HETO133 and HETO134; assay: Field trial, visible phytotoxicity (Table 2); format: in vivo, Brassica napus; details: applied at BBCH 14, 200 L/ha water, g ai/ha: Foramsulfuron 25, TCM 15, Iodosulfuron 7, Mesosulfuron 60, Amidosulfuron 30, Ethoxysulfuron 60, Imazamox 40, Metosulam 30, Bispyribac 50, Nicosulfuron 60, Metsulfuron 8, Propoxycarbazone 70, Pyroxsulam 50, Tribenuron 30, Rimsulfuron 12.5, Flucarbazone 40, Thifensulfuron 7.5
Text: as §1

[5] = tested on: Hypocotyl derived callus (WT tissues); assay: Callus selection on Foramsulfuron containing medium; format: cell-based, Brassica napus
Method: Five day old seedlings were used for the preparation of hypocotyl segments 7-10 mm in length. Hypocotyl segments were transferred to 14 cm Petri plates containing 75 ml of M-338 [H76] callus induction medium (25 explants/plate). M-338 [H76] medium is MS salts and vitamins (Murashige and Skoog, 1962), 20 g/l sucrose, 0.5 g/l MES, 0.5 g/l adenine sulphate, 5 mg/l silver nitrate, 0.5 mg/l 2,4-D, 0.2 mg/l kinetin and solidified with 5.5 g/l agarose (pH 5.7). Dishes were sealed and cultured at 24° C. with standard light conditions (16 h/day). After 3 weeks, calli developing at the ends of the explants were transferred to fresh M-338 [H76] plates (25 calli/plate). Calli were subcultured to fresh medium every 3 weeks (larger calli cut into two pieces).
Hypocotyl derived callus (9 weeks old) was used for the selection of herbicide resistant mutants. Small pieces of callus were plated on M-338 [H76] medium containing 25 nM of the ALS inhibitor Foramsulfuron (CAS RN 173159-57-4). […] Dishes were cultured at 24° C. with standard light conditions (16 h/day). After 3 weeks, the calli were divided into 2 pieces each and replated on M-338 [H76] medium containing 50 nM Foramsulfuron. […]

[6] = tested on: wild-type (WT) oilseed rape; assay: Further field trial, phytotoxicity (Table 3); format: in vivo, Brassica napus; details: g ai/ha: IMAZAMOX 40, BISPYRIBAC-SODIUM 50, PROPOXYCARBAZONE-SODIUM 70, MESOSULFURON-METHYL 60, PYROXSULAM 12.5 with CLOQUINTOCET-MEXYL 37.5, each with RAPESEED OIL METHYLATED 366.5
Method: (§2) In a further field trial, seeds of spring oilseed rape comprising HETO133 and HETO134, and wild type (WT) seeds were sown in a field. For the untreated plants, biomass was determined at 9, 16 and 24 days after application (DAA) as compared to a control variety. For the treated plants, phytotoxicity was assessed at 9, 16 and 24 days after application (DAA) according to a scale from 0 to 100%. For both wild-type and HETO133-HETO134, no thinning was observed.

[7] = tested on: oilseed rape homozygous for HETO133 and HETO134; assay: Further field trial, phytotoxicity (Table 3); format: in vivo, Brassica napus; details: g ai/ha: IMAZAMOX 40, BISPYRIBAC-SODIUM 50, PROPOXYCARBAZONE-SODIUM 70, MESOSULFURON-METHYL 60, PYROXSULAM 12.5 with CLOQUINTOCET-MEXYL 37.5, each with RAPESEED OIL METHYLATED 366.5
Method: as §2

## COC(=O)c1csc(C)c1S(=O)(=O)NC(=O)n1nc(OC)n(C)c1=O [TCM, thiencarbazone-methyl]
[1]
  Percentage phytotoxicity ABILITY 7 DAA: 85%
  Percentage phytotoxicity standard 14 DAA: 98%
  Percentage phytotoxicity standard 23 DAA: 99%
[2]
  Percentage phytotoxicity WTS 7 DAA: 85%
  Percentage phytotoxicity WTS 14 DAA: 98%
  Percentage phytotoxicity WTS 23 DAA: 99%
[3]
  Percentage phytotoxicity P197S-W574L 7 DAA: 16%
  Percentage phytotoxicity P197S-W574L 14 DAA: 13%
  Percentage phytotoxicity P197S-W574L 23 DAA: 17%
[4]
  Percentage phytotoxicity HETO133-HETO134 7 DAA: 0%
  Percentage phytotoxicity HETO133-HETO134 14 DAA: 0%
  Percentage phytotoxicity HETO133-HETO134 23 DAA: 3%

## COc1cc(OC)nc(NC(=O)NS(=O)(=O)c2cc(NC=O)ccc2C(=O)N(C)C)n1 [Foramsulfuron, foramsulfuron]
[5]; 25 nM Foramsulfuron in M-338 [H76] medium, starting concentration
  effect on callus growth: partially inhibitory to callus growth but not lethal
[5]; 250 nM Foramsulfuron in M-338 [H76] medium
  effect on WT tissues: clearly inhibitory to WT tissues

## COCc1cnc(C2=NC(C)(C(C)C)C(=O)N2)c(C(=O)O)c1 (centres unmarked) [Imazamox, imazamox]
[6]
  Percentage phytotoxicity WT 9 DAA: 73.3%
  Percentage phytotoxicity WT 16 DAA: 98%
  Percentage phytotoxicity WT 24 DAA: 99%
[7]
  Percentage phytotoxicity HETO133-HETO134 9 DAA: 6.7%
  Percentage phytotoxicity HETO133-HETO134 16 DAA: 10%
  Percentage phytotoxicity HETO133-HETO134 24 DAA: 0%

## COC(=O)c1ccc(CNS(C)(=O)=O)cc1S(=O)(=O)NC(=O)Nc1nc(OC)cc(OC)n1 [Mesosulfuron, mesosulfuron-methyl]
[1]
  Percentage phytotoxicity ABILITY 7 DAA: 85%
  Percentage phytotoxicity standard 14 DAA: 98%
  Percentage phytotoxicity standard 23 DAA: 99%
[2]
  Percentage phytotoxicity WTS 7 DAA: 85%
  Percentage phytotoxicity WTS 14 DAA: 98%
  Percentage phytotoxicity WTS 23 DAA: 99%
[3]
  Percentage phytotoxicity P197S-W574L 7 DAA: 40%
  Percentage phytotoxicity P197S-W574L 14 DAA: 40%
  Percentage phytotoxicity P197S-W574L 23 DAA: 45%
[4]
  Percentage phytotoxicity HETO133-HETO134 7 DAA: 33%
  Percentage phytotoxicity HETO133-HETO134 14 DAA: 38%
  Percentage phytotoxicity HETO133-HETO134 23 DAA: 35%
[6]
  Percentage phytotoxicity WT 9 DAA: 76.7%
  Percentage phytotoxicity WT 16 DAA: 98%
  Percentage phytotoxicity WT 24 DAA: 96%
[7]
  Percentage phytotoxicity HETO133-HETO134 9 DAA: 11.7%
  Percentage phytotoxicity HETO133-HETO134 16 DAA: 13.3%
  Percentage phytotoxicity HETO133-HETO134 24 DAA: 3.3%

## COc1cc(OC)nc(Oc2cccc(Oc3nc(OC)cc(OC)n3)c2C(=O)O)n1 [Bispyribac, bispyribac-sodium]
[6]
  Percentage phytotoxicity WT 9 DAA: 76.7%
  Percentage phytotoxicity WT 16 DAA: 98.3%
  Percentage phytotoxicity WT 24 DAA: 100%
[7]
  Percentage phytotoxicity HETO133-HETO134 9 DAA: 56.7%
  Percentage phytotoxicity HETO133-HETO134 16 DAA: 88.3%
  Percentage phytotoxicity HETO133-HETO134 24 DAA: 92.7%

— patent US20160160232A1, “ALS INHIBITOR HERBICIDE TOLERANT MUTANT PLANTS” (priority 2013, published 2016)
